Source: patent publication US20230219986A1, “NOVEL AMINOPYRIMIDINE EGFR INHIBITOR” (QILU PHARMACEUTICAL CO., LTD., priority 2020, published 2023)
Like-named read-outs stand apart in the source and are kept apart here.

Assays:
[1] = target: Ba/F3 De119/T790M/C797S EGFR triple mutant cell line (Homo sapiens, UniProt P00533, T790M/C797S, cells depend on it, form not given); assay: Cell proliferation inhibition experiment (CellTiter-Glo), Ba/F3 De119/T790M/C797S; format: cell-based; details: Ba/F3 Del19/T790M/C797S EGFR triple mutant cells, 72 hours, Cell Titer-Glo; read-out: Ba/F3 (Del19/T790M/C797S) IC50
wild-type EGFR = target: T1, wild-type EGFR (Homo sapiens, UniProt P00533); assay: Enzymology experiment in vitro (HTRF/FRET kinase activity), wild-type EGFR; format: biochemical; details: HTRF KinEASE-TK, read-out: EGFR (WT) IC50
T1 construct: purchased Signalchem
Method in brief: (§1)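 Kinase reaction run 40 min at room temperature with peptide and ATP after a 10 min compound–enzyme preincubation. Phosphorylation read as HTRF signal after 1 h with Eu³⁺ antibody, XL665-streptavidin and EDTA (Cisbio KinEASE-TK).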

[2] = test system: EGFR wild-type cell line A431; assay: Cell proliferation inhibition experiment (CellTiter-Glo), A431; format: cell-based; details: A431 cells, Cell Titer-Glo, read-out: A431 EGFR WT IC50
Method in brief: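 Luminescent CellTiter-Glo readout, 30 min at room temperature, after 72 h compound exposure at 37° C., 5% CO2 with 0.1% DMSO final. EGFR wild-type A431 cells were seeded at 800 per well and grown 24 h before dosing. IC50 derived from the dose-response.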

[3] = target: T2, L858R/T790M/C797S triple mutant EGFR (Homo sapiens, UniProt P00533, C797S/L858R/T790M); assay: Enzymology experiment in vitro (HTRF/FRET kinase activity), L858R/T790M/C797S triple mutant EGFR; format: biochemical; details: HTRF KinEASE-TK, read-out: EGFR (L858R/T790M/C797S) IC50
T2 construct: purchased Signalchem
Method in brief: as §1

[4] = target: Ba/F3 L858R/T790M/C797S EGFR triple mutant cell line (Homo sapiens, UniProt P00533, T790M/C797S/L858R, cells depend on it); assay: Cell proliferation inhibition experiment (CellTiter-Glo), Ba/F3 L858R/T790M/C797S; format: cell-based; details: 72 hours, Cell Titer-Glo, read-out: Ba/F3 (L858R/T790M/C797S) IC50
Ba/F3 L858R/T790M/C797S EGFR triple mutant cell line, sequence (P00533 whole entry T790M/C797S/L858R): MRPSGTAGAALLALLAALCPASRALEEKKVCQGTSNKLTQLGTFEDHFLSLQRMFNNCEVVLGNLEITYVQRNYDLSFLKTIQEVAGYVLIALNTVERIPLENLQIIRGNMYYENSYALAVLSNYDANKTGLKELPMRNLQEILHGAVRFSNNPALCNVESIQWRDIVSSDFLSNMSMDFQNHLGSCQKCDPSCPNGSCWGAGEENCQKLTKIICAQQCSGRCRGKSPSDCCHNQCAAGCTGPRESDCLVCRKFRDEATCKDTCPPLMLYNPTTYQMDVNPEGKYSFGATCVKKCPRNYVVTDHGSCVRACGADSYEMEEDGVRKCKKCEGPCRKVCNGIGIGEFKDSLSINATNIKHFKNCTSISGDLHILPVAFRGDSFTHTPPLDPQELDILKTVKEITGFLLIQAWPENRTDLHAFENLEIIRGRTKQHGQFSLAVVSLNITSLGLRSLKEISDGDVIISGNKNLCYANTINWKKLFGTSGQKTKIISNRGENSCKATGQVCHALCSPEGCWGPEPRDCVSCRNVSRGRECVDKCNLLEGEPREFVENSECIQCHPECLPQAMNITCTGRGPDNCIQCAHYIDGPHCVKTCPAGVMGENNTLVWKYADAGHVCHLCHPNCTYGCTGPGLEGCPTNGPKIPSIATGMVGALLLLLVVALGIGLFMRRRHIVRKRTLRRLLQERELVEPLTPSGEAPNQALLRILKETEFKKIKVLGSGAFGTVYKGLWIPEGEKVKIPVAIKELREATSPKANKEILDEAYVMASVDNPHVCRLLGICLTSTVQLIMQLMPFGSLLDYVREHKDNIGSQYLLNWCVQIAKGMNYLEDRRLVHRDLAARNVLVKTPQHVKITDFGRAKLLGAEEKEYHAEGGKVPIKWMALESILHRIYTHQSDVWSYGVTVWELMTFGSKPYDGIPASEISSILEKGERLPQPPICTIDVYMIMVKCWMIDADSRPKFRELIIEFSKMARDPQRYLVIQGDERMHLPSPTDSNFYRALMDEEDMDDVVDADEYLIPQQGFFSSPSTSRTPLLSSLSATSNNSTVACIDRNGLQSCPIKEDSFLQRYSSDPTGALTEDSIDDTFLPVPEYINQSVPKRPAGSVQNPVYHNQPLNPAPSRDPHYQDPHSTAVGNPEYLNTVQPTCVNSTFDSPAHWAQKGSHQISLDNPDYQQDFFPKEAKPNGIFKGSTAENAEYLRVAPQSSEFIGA

T1 sequence (P00533 25-1210): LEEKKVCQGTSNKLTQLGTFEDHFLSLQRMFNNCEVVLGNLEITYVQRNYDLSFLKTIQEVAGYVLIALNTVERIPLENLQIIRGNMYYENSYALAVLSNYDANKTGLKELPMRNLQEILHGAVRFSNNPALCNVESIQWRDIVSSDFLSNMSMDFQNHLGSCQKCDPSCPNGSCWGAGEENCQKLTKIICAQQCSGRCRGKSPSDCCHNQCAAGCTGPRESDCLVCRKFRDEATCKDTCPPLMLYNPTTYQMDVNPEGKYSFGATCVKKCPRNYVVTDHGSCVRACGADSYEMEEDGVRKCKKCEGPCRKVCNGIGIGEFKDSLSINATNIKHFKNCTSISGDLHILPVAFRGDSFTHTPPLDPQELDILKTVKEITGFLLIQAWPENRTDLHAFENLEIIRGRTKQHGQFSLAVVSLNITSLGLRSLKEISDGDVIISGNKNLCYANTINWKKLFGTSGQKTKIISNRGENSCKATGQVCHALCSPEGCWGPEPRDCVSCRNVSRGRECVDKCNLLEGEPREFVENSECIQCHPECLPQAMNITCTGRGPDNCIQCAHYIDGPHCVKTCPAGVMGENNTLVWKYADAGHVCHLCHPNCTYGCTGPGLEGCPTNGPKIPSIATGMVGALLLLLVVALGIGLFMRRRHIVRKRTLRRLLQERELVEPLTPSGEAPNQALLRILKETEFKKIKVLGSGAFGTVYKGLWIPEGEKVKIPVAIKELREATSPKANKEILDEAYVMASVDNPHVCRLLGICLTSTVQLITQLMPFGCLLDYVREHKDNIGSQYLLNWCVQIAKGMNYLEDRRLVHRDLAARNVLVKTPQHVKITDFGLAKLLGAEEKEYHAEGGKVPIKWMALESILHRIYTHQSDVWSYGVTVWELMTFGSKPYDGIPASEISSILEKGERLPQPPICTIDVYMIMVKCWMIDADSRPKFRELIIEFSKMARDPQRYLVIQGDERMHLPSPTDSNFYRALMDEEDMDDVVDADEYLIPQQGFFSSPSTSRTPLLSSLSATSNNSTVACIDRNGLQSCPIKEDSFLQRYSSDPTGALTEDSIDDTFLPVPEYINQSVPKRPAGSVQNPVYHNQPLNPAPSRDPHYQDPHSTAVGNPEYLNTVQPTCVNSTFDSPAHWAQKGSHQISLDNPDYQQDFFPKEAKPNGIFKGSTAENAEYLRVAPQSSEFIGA
Ba/F3 De119/T790M/C797S EGFR triple mutant cell line, sequence (P00533 with tags, fused parts or gaps DEL746-750/T790M/C797S, form open): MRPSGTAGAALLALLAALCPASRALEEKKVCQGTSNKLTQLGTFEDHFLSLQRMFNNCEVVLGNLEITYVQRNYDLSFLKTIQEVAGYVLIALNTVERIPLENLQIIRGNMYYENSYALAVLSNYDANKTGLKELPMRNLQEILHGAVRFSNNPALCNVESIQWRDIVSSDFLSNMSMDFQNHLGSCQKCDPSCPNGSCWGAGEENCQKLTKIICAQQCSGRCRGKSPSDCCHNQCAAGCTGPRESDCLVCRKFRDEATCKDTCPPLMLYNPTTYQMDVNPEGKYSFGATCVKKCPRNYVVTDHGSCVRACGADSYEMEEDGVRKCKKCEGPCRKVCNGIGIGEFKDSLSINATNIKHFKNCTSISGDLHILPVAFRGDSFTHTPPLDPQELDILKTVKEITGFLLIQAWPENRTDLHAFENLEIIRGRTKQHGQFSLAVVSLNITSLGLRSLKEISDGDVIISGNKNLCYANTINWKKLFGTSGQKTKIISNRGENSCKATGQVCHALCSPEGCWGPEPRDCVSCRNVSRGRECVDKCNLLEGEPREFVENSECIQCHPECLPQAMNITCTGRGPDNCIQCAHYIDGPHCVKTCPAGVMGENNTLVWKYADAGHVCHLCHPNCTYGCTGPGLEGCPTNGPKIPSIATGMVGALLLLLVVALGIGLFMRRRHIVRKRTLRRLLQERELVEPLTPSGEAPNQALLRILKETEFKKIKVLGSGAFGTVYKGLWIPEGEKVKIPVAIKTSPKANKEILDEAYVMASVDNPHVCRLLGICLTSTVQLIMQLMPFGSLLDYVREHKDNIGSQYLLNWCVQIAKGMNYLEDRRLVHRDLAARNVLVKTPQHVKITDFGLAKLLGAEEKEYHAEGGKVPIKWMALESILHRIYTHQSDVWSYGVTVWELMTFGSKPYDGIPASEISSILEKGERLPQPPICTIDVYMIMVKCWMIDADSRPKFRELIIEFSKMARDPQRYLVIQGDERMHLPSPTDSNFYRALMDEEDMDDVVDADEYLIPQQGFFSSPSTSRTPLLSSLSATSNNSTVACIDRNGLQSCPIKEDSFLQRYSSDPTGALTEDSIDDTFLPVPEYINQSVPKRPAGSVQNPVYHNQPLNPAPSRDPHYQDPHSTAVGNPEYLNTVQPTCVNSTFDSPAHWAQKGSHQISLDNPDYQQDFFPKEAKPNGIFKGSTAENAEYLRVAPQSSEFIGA
T2 sequence (P00533 25-1210 T790M/C797S/L858R): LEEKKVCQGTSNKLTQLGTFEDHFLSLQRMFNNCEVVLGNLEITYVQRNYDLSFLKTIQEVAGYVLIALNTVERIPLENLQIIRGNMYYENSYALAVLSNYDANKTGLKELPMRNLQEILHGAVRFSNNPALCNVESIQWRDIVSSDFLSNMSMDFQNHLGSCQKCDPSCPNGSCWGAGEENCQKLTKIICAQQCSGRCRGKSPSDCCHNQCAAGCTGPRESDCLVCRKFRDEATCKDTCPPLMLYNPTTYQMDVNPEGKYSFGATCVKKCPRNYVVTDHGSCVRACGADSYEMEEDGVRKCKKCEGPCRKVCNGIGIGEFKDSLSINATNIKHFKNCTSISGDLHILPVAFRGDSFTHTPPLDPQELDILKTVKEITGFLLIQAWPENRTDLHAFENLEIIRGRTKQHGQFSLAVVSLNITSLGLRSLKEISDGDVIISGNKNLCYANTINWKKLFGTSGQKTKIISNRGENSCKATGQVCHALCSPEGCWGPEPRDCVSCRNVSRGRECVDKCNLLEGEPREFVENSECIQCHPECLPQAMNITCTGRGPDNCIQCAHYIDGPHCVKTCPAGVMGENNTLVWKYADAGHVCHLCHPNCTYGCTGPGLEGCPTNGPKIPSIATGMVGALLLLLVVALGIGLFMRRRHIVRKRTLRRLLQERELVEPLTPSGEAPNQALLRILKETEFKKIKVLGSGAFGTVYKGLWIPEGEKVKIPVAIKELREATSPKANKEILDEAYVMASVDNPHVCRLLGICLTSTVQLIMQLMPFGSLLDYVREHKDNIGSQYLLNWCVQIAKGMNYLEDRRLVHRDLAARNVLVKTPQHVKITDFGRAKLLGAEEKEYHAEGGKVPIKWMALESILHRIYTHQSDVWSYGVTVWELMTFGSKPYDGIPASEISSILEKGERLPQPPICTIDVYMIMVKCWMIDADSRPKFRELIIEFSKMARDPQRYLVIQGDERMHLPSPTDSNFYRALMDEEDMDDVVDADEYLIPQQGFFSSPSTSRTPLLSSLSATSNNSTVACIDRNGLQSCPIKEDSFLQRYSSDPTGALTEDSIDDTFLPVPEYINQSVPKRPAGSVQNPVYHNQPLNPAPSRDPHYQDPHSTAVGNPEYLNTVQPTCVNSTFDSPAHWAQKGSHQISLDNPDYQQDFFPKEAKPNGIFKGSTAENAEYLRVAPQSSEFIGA

| Structure (SMILES) | GI50 [1] | IC50 (wild-type EGFR) | IC50 ([2]; Homo sapiens, A-431, 72 h) | IC50 [3] | GI50 [4] | IC50 ([2]; 72 hours) |
| --- | --- | --- | --- | --- | --- | --- |
| COc1cc(S(=O)(=O)N(C)C)c(-c2cnn(C)c2)cc1Nc1ncc(Br)c(Nc2ccc3nccnc3c2P(C)(C)=O)n1 [Compound 35, 4-((5-bromo-4-((5-(dimethylphosphoryl)quinoxalin-6-yl)amino)pyrimidin-2-yl)amino)-5-methoxy-N,N-dimethyl-2-(1-methyl-1H-pyrazol-4-yl)benzenesulfonamide] | 93.2 nM | 384 nM | 752 nM | 11.9 nM | 327 nM | – |
| COc1cc(N2CCN3CCCC3C2)c(-c2cnn(C)c2)cc1Nc1ncc(Br)c(Nc2ccc3nccnc3c2P(C)(C)=O)n1 (stereo not drawn) [compound 130] | 1 nM | 1.44 nM | 73.5 nM | 0.05 nM | 9 nM | – |
| COc1cc(N2CC(C)OC(C)C2)c(-c2cnn(C)c2)cc1Nc1ncc(Br)c(Nc2ccc3nccnc3c2P(C)(C)=O)n1 (single isomer, unassigned) [155a] | 2.98 nM | 27.7 nM | 320 nM | 0.67 nM | 15.6 nM | – |
| COc1cc(N2CCC(N(C)C)C2)c(-c2cnn(C)c2)cc1Nc1ncc(Br)c(Nc2ccc3nccnc3c2P(C)(C)=O)n1 (stereo not drawn) [compound 10] | 6.06 nM | 4.55 nM | 47 nM | 0.1 nM | 10.7 nM | – |
| COc1cc(N2CCN(CC3CC3)CC2)c(-c2cnn(C)c2)cc1Nc1ncc(Br)c(Nc2ccc3cncnc3c2P(C)(C)=O)n1 [compound 236] | 5.45 nM | 11 nM | 91.5 nM | 0.21 nM | 12.7 nM | – |
| COc1cc(N2CCOCC2)c(-c2cnn(C)c2)nc1Nc1ncc(C)c(Nc2ccc3nccnc3c2P(C)(C)=O)n1 [compound 71] | 99.4 nM | 38.9 nM | > 10000 nM | 1.7 nM | 316 nM | – |
| COc1cc(N2CCO[C@H](C)C2)c(-c2cnn(C)c2)cc1Nc1ncc(Br)c(Nc2ccc3nccnc3c2P(C)(C)=O)n1 [compound 169] | 2.36 nM | 4.39 nM | 175 nM | 0.73 nM | 4.24 nM | – |
| COc1cc(N2CCC3(CC2)CN(C)CCN3C)c(-c2cnn(C)c2)cc1Nc1ncc(Br)c(Nc2ccc3nccnc3c2P(C)(C)=O)n1 [compound 194] | 5.56 nM | 2.85 nM | 79.5 nM | 0.17 nM | 16.4 nM | – |
| COc1cc(N2CCN3CCCC[C@H]3C2)c(-c2cnn(C)c2)cc1Nc1ncc(Br)c(Nc2ccc3nccnc3c2P(C)(C)=O)n1 [compound 166] | 1.58 nM | 3.81 nM | 92.1 nM | 0.48 nM | 5.05 nM | – |
| CN1CCN(c2noc3c(Nc4ncc(Br)c(Nc5ccc6nccnc6c5P(C)(C)=O)n4)cc(-c4cnn(C)c4)cc23)CC1 [compound 200] | 7.47 nM | 7.56 nM | 69.6 nM | 0.19 nM | 22 nM | – |
| COc1cc(N2CCC(C)(OC)CC2)c(-c2c[nH]n(C)c2=O)cc1Nc1ncc(Br)c(Nc2ccc3nccnc3c2P(C)(C)=O)n1 [compound 241] | 2.92 nM | 30.1 nM | 182 nM | 0.13 nM | 12.3 nM | – |
| COc1cc(N2CCN(CC3CC3)CC2)c(-c2cnn(C)c2)cc1Nc1ncc(Br)c(Nc2ccc3nccnc3c2P(C)(C)=O)n1 [compound 157] | 1.28 nM | 3.6 nM | 49.4 nM | 0.33 nM | 7.05 nM | – |
| COc1cc(N2CCOCC2)c(-c2cnn(C)c2)cc1Nc1ncc(Br)c(Nc2ccc3nccnc3c2NS(C)(=O)=O)n1 [compound 126] | 0.93 nM | 1.55 nM | 286 nM | 0.15 nM | 3.81 nM | – |
| COc1cc(N2CCOCC2)c(-c2cccs2)cc1Nc1ncc(Br)c(Nc2ccc3nccnc3c2P(C)(C)=O)n1 [compound 83] | 34 nM | 1000 nM | 2420 nM | 3.95 nM | 58.9 nM | – |
| COc1cc(N2CCOCC2)c(-c2cnoc2)cc1Nc1ncc(Br)c(Nc2ccc3nccnc3c2P(C)(C)=O)n1 [compound 19] | 6.71 nM | 39.3 nM | 488 nM | 0.17 nM | 68.8 nM | – |
| COc1cc(N2CC(C)OC(C)C2)c(-c2cnn(C)c2)cc1Nc1ncc(Br)c(Nc2cc3c(cc2P(C)(C)=O)CC3)n1 (racemic) [compound 137] | 27.1 nM | 170 nM | – | 9.81 nM | 77.8 nM | 1500 nM |
| CCc1cnc(Nc2cc(-c3cnn(C)c3)c(N3CCOCC3)cc2OC)nc1Nc1ccc2nccnc2c1P(C)(C)=O [Compound 31, (6-((5-ethyl-2-((2-methoxy-5-(1-methyl-1H-pyrazol-4-yl)-4-morpholinylphenyl)amino)pyrimidin-4-yl)amino)quinoxalin-5-yl)dimethylphosphine oxide] | 4.58 nM | 0.38 nM | 194 nM | 0.25 nM | 12.8 nM | – |
| COc1cc(N2CCC(N3CCN(C)CC3)CC2)c(-c2cnn(C)c2)cc1Nc1ncc(Br)c(Nc2cc3c(cc2N(C)S(C)(=O)=O)CC3)n1 [compound 158] | 3.28 nM | 2.48 nM | 166 nM | 0.81 nM | 6.76 nM | – |
| COc1cc(N2CCC(N(C)C(C)C(F)(F)F)CC2)c(-c2cnn(C)c2)cc1Nc1ncc(Br)c(Nc2ccc3nccnc3c2P(C)(C)=O)n1 (stereo not drawn) [compound 173] | 11.2 nM | 50.7 nM | 738 nM | 6 nM | 24.5 nM | – |
| COc1cc(N2CCC(N3CCN(C)CC3)CC2)c(-c2cnn(C)c2)cc1Nc1ncc(F)c(Nc2ccc3nccnc3c2P(C)(C)=O)n1 [compound 119] | 36.6 nM | 4.07 nM | 639 nM | 1.3 nM | 239 nM | – |
| COc1cc(N2CCC(N3CCN(C)CC3)CC2)c(-c2cnn(C)c2)cc1Nc1ncc(Br)c(Nc2ccc3nccnc3c2P(C)(C)=O)n1 [compound 18] | 2.87 nM | 1.26 nM | 45.4 nM | 0.08 nM | 20.9 nM | – |
| COc1cc(N2CCOC[C@H]2C)c(-c2cnn(C)c2)cc1Nc1ncc(Br)c(Nc2ccc3nccnc3c2P(C)(C)=O)n1 [compound 104] | 4.07 nM | 27.2 nM | 192 nM | 0.95 nM | 17.7 nM | – |
| COc1cc(N2CCC(F)CC2)c(-c2cnn(C)c2)cc1Nc1ncc(Br)c(Nc2ccc3nccnc3c2P(C)(C)=O)n1 [compound 124] | 3.93 nM | 8.35 nM | 516 nM | 1.2 nM | 7.93 nM | – |
| COc1cc(N2CCS(=O)(=O)CC2)c(-c2cnn(C)c2)cc1Nc1ncc(Br)c(Nc2ccc3nccnc3c2P(C)(C)=O)n1 [compound 94] | 6.99 nM | 2.78 nM | 168 nM | 0.15 nM | 28.8 nM | – |
| COc1cc(N2CCC(N3CCN(CC(F)F)CC3)CC2)c(-c2cnn(C)c2)cc1Nc1ncc(Br)c(Nc2ccc3nccnc3c2P(C)(C)=O)n1 [compound 186] | 1.39 nM | 1.19 nM | 62 nM | 0.37 nM | 3.47 nM | – |
| COc1cc(N2CCN(C(C)C)CC2)c(-c2cnn(C)c2)cc1Nc1ncc(Br)c(Nc2ccc3nccnc3c2P(C)(C)=O)n1 [Compound 88, (6-((5-bromo-2-((4-(4-isopropylpiperazin-1-yl)-2-methoxy-5-(1-methyl-1H-pyrazol-4-yl)phenyl)amino)pyrimidin-4-yl)amino)quinoxalin-5-yl)dimethylphosphine oxide] | 2.18 nM | 4.26 nM | 40.9 nM | 0.09 nM | 4.45 nM | – |
| COCCN1CCC2(CC1)CCN(c1cc(OC)c(Nc3ncc(Br)c(Nc4ccc5nccnc5c4P(C)(C)=O)n3)cc1-c1cnn(C)c1)CC2 [compound 139] | 1.59 nM | 0.57 nM | 61 nM | 0.24 nM | 2.33 nM | – |
| [2H]C([2H])([2H])N(c1cc(OC)c(Nc2ncc(Br)c(Nc3ccc4nccnc4c3P(C)(C)=O)n2)cc1-c1cnn(C)c1)C([2H])([2H])[2H] [compound 145] | 1.7 nM | 3.48 nM | 203 nM | 0.31 nM | 2.41 nM | – |
| COc1cc(N2CCC3(CN(C)CCO3)C2)c(-c2cnn(C)c2)cc1Nc1ncc(Br)c(Nc2ccc3nccnc3c2P(C)(C)=O)n1 (stereo not drawn) [compound 146] | 1.44 nM | 8.43 nM | 179 nM | 0.38 nM | 5.47 nM | – |
| COc1cc(N2CCC3(CCN(C)CC3)CC2)c(-c2cnn(C)c2)cc1Nc1ncc(Br)c(Nc2ccc3nccnc3c2P(C)(C)=O)n1 [compound 101] | 2.87 nM | 0.41 nM | 46.1 nM | 0.18 nM | 4.53 nM | – |
